Test results published in US20240173442A1, “COMBINATION THERAPY” (Hoffmann-La Roche Inc., priority 2021, published 2024).

Key:
[1] = Protocol 119: body weight, adverse events and toxicity; type: in vivo
[2] = Protocol 136: body weight, adverse events and toxicity; type: in vivo, B6-huCEA mice
Description: (§1) Primary solid xenografts were established in each B6-huCEA or huCEACAM5 mouse on study day 0 through subcutaneous (SC) or intrapancreatic injection of carcinoembryonic antigen (CEA)-expressing tumor cells. […] Indications of pain, distress, or discomfort include, but are not limited to, acute body weight (BW) loss, scruffy fur, diarrhea, hunched posture, pale skin, and reluctance to move. Poor SC tumor status (e.g. ulceration, teeth marks, or open wounds) may also prompt euthanasia; in the orthotopic model, abdominal swelling indicates increasing tumor burden, which may prompt euthanasia.
(§2) SC tumor volumes were estimated through manual calipering 3 times per week, calculated according to the formula: volume 0.5× length×width^2. Additional tumor measurements were made as needed depending on the tumor growth rate. In the orthotopic model, the tumor progress was assessed regularly through bioluminescence imaging (BLI). The BW of the animals was measured at least 3 times per week, with additional measurements as needed depending on the health status. Mice whose BW loss exceeded 20% of their initial BW or whose tumor volume reached 3000 mm^3 (Protocols 119, 136, 150) or 2000 mm^3 (Protocol 195) were euthanized immediately.
No mice were euthanized due to acute post-injection BW loss; 1 tumor-free CEA-PRIT mouse was euthanized on day 117 after a sudden decline in overall status. […]

[3] = Protocol 150: body weight, adverse events and toxicity; type: in vivo
Description: as §1, §2
No mice were euthanized due to acute post-injection BW loss.
Reactions included sluggish behaviour, somnolence, and death in 1/14 mice. […]

[4] = Protocol 195: body weight, adverse events and toxicity; type: in vivo

NC(=O)CN1CCN(CC(N)=O)CCN(CC(N)=O)CCN(CC(N)=O)CC1.[212Pb+2] [^212Pb-DOTAM]
body weight change [1]: transient weight loss in irradiated mice | body weight change [2]: transient weight loss in irradiated mice | body weight change [3]: transient weight loss in irradiated mice | body weight change [4]: did not cause any significant weight loss by itself
